PMC3702540, “Sphingosine Kinase Activity Is Not Required for Tumor Cell Viability” (PLoS ONE, 2013)
pIC50: −log10 of the molar value.

How the values were obtained:
[1] = tested on: human melanoma cell line WM266.4; assay: Cellular SPHK activity, C17 S1P levels; conditions: WM 266-4, 2 h, read-out: IC50, inhibition of cellular SPHK activity (C17 S1P)
Method: (§9) Frozen cell pellets (1×10^6 cells) were thawed and 75 µl of methanol was added. The samples were transferred to an un-skirted 96 well PCR plate after which they were mixed to a homogeneous solution. The plate was then sealed and pulsed for 6 seconds per well (E200-S0%250 mV500 setting) on a Covaris Adaptive Focused Acoustic (AFA) cell disruptor (Covaris, Woburn, MA). 130 µl of Dichloromethane was then added to each well after which plates were incubated at room temperature for 2 hours. Post incubation, 52 µl of ddH2O was added to induce phase separation. […] 45 µl of this final sample was transferred to a 384 well plate and analyzed on a RapidfireTM (Biocius, Wakefield, MA) ultra-high throughput chromatography system interfaced with a TSQ Vantage triple stage quadrupole mass spectrometer (Thermo Scientific, Waltham, MA). […] After an aqueous wash ((80∶20) Methanol/ddH2O containing 75 mM NH4OH and 0.1% formic acid) to remove the S1P extraction components that interfere with mass spectrometry, C17-S1P was eluted ((99∶1) Methanol/ddH2O containing 0.1% formic acid) and analyzed by inline triple stage quadrupole mass spectrometry. […] C17-S1P was monitored using a selective reaction monitoring protocol which detected the loss of a phosphate molecule from the parent ion C17-S1P. […]
(§10) Two hours after addition of C17 sphingosine, cells were lysed and levels of C17 S1P were determined.

[2] = tested on: MDA-MB-231 xenograft tumors; assay: MDA-MB-231 tumor xenograft model; assay type: in vivo; conditions: athymic nude mice
Method: MDA-MB-231 cells were purchased from the American Type Culture Collection (ATCC) and maintained in DMEM high glucose with 10% fetal bovine serum (FBS) and 1x-L-glutamine. Mice were injected subcutaneously with 5×10^6 cells in 30% Matrigel (BD Biosciences, San Jose, CA). […] Vehicle and compound A were administered by oral gavage daily. Taxotere was administered by intraperitoneal injection once a week. Tumor dimensions were assessed twice weekly with a Pro-Max electronic digital caliper (Sylvac, Crissier, Switzerland) and tumor volume was calculated using the formula: length x width x height and expressed as mm^3. Data are expressed as mean +/− SE (n = 7–10). Repeated-measures analysis of variance (RMANOVA) followed by Dunnett’s post hoc test for multiple comparisons was used to evaluate statistical significance of observed differences. Body weight was recorded twice weekly as an index of toxicity.
Here, athymic nude mice were implanted s.c. with human MDA-MD-231 breast cancer cells. Dosing was initiated 18 days later when the tumors had reached ∼ 200 mm^3.
Female athymic nude mice were injected with 5×10^6 MDA-MB-231 cells on day 0. […] (n = 7–10 per group); bars, SE. *, P<0.0001, compared to vehicle.

LOX = assay: 72 h viability assay (CellTiter-Glo); assay type: cell-based, human; conditions: LOX (Skin), inflection point of titration curve
Method: (§1) Cell lines were obtained from ATCC and cultured in Dulbecco’s Modification of Eagle’s Medium (Corning® cellgro 10-013) supplemented with 5% FBS and 1% P/S or in Minimum Essential Medium (Corning® cellgro® 10-010) supplemented with 10% FBS, 0.1 mM MEM Nonessential Amino Acids (Corning® cellgro 25-025), 1.0 mM sodium pyruvate (Corning® cellgro 25-000) and 1% P/S. Cells were seeded at a density of 5000 cells per well in 96-well cell culture plates on day1. Media was changed with or without serum and dosed with compound on Day 2. On day5 the Cell Viability assay was performed with CellTiter-Glo® Reagent (Promega) according to the manufacturers instruction.
(§2) S1P has been reported to be important for tumor cell viability, and reduction of intracellular S1P levels has been associated with greater cellular sensitivity to pro-apoptotic stress, [7]. […] A panel of cell lines likely to be sensitive to SPHK inhibition was assembled based on literature reports, internal siRNA data and SPHK expression levels, [9], [21]. Viability was monitored after 72 h of SPHK inhibition under regular culture conditions to assess direct effects on cell viability, and under serum starvation to assess the effects of SPHK inhibition under stress conditions.
(§3) The IC50s reflect the inflection point of the titration curve.

[3] = tested on: murine melanoma cell line B16F10; assay: Cellular SPHK activity, C17 S1P levels; conditions: Mus musculus, B16-F10, 2 h, read-out: IC50, inhibition of cellular SPHK activity (C17 S1P)
Method: as §9, §10

plasma levels of S1P = assay: Pharmacodynamic assay, plasma S1P levels in mice; assay type: in vivo
Method: (§4) For S1P measurements, plasma was extracted with 0.1% formic acid/methanol containing an internal standard (C17-S1P) and subjected to LC-MS/MS analysis. […] The method provided linear response over a concentration range of 1 to 2000 ng/ml. A separate aliquot of plasma was extracted with acetonitrile containing an internal standard (structural analog) and subjected to reversed-phase liquid chromatographic using a Shiseido UG Capcell C18, 50×2 mm analytical column (Phenomenex). MS/MS analysis was conducted on a API4000 with an electrospray interface using multiple reaction monitoring (MRM) in the positive ionization mode.
(§5) Female athymic nude mice were assigned to one of fifteen treatment groups. […] At various times after dosing (2 to 24 h), mice were sacrificed and plasma collected to determine S1P levels and compound concentrations. Data are mean ± SE (n = 5). […] S1P and drug concentration were determined by LC-MS/MS.
(§6) The inhibition of sphingosine kinase was evaluated in a pharmacodynamic assay. […] At 2, 7 and 24 hours post dose, plasma was collected and levels of S1P and plasma drug concentration were determined.

[4] = tested on: human breast cancer cell line MDA-MB-231; assay: Cellular SPHK activity, C17 S1P levels; conditions: MDA-MB-231, 2 h, read-out: IC50, inhibition of cellular SPHK activity (C17 S1P)
Method: as §9, §10

human cell lines = assay: Cellular SPHK activity, C17 S1P levels, summary for human cell lines; assay type: cell-based
[5] = Compound plasma concentration in mice after oral gavage; assay type: in vivo
Method: as §4, §5, §6

panel of cell lines = assay: 72 h viability assays, summary for panel of cell lines; assay type: cell-based; conditions: regular culture conditions and serum starvation
Method: as §1, §2

LN229 cells = assay: 15 day colony formation assay; assay type: cell-based, human; conditions: concentrations up to 1 µM
Method: LN-229 cells were cultured in Dulbecco’s Modification of Eagle’s Medium (Corning® cellgro 10-013) supplement with 5%FBS and 1% P/S. On Day 1 cells were seeded on 6-well tissue culture plates at density of 800 cells per well. On Day 2 compounds were added and cells were incubated for 15 days at 37°C. Cells were then stained with Crystal violet.
The long term effect of SPHK inhibition on cell viability was studied in the glioblastoma cell line LN229. […] Concentrations of more than 3 µM led to immediate cell death due to cell lysis and prevented the formation of colonies (figure 5).
Figure 5 Effects of SPHK inhibition in colony formation assays. LN229 cells were seeded at a density of 800 cells/well in a six well plate in the presence of the indicated concentrations of SPHK inhibitor. After 15 days, cells were fixed and stained with crystal violet.

HeLa = assay: 72 h viability assay (CellTiter-Glo); assay type: cell-based; conditions: Homo sapiens, HeLa (Cervix), inflection point of titration curve
Method: as §1
(§7) S1P has been reported to be important for tumor cell viability, and reduction of intracellular S1P levels has been associated with greater cellular sensitivity to pro-apoptotic stress, [7]. Compounds A and B were used to test this hypothesis experimentally. A panel of cell lines likely to be sensitive to SPHK inhibition was assembled based on literature reports, internal siRNA data and SPHK expression levels, [9], [21]. Viability was monitored after 72 h of SPHK inhibition under regular culture conditions to assess direct effects on cell viability, and under serum starvation to assess the effects of SPHK inhibition under stress conditions. […] Cell death was only observed at higher concentrations (3 to 30 µM). […] Like all substrate competitive SPHK inhibitors, these compounds have a polar headgroup and a lipophilic tail, and can act as detergents at higher concentrations. […]

LN18 = assay: 72 h viability assay (CellTiter-Glo); assay type: cell-based; conditions: Homo sapiens, LN-18, LN18 (Brain), inflection point of titration curve
Method: as §1, §7

A375 = assay: 72 h viability assay (CellTiter-Glo); assay type: cell-based; conditions: Homo sapiens, A-375, A375 (Skin), inflection point of titration curve
Method: as §1, §7

HA-1 = assay: 72 h viability assay (CellTiter-Glo); assay type: cell-based; conditions: read-out: IC50 viability
Method: as §1, §7

WM266-4 = assay: 72 h viability assay (CellTiter-Glo); assay type: cell-based; conditions: Homo sapiens, WM 266-4, WM266-4 (Skin), inflection point of titration curve
Method: as §1, §7

Colo 320 = assay: 72 h viability assay (CellTiter-Glo); assay type: cell-based; conditions: Homo sapiens, Colo 320 (Colon), inflection point of titration curve
Method: as §1, §7

Saos2 = assay: 72 h viability assay (CellTiter-Glo); assay type: cell-based; conditions: Homo sapiens, SAOS-2, Saos2 (Bone), inflection point of titration curve
Method: as §1, §7

LN229 = assay: 72 h viability assay (CellTiter-Glo); assay type: cell-based; conditions: Homo sapiens, LN-229, LN229 (Brain), inflection point of titration curve
Method: as §1, §7

HS294T = assay: 72 h viability assay (CellTiter-Glo); assay type: cell-based; conditions: Homo sapiens, Hs 294T, HS294T (Skin), inflection point of titration curve
Method: as §1, §7

UACC257 = assay: 72 h viability assay (CellTiter-Glo); assay type: cell-based; conditions: Homo sapiens, UACC-257, UACC257 (Skin), inflection point of titration curve
Method: as §1, §7

mSPHK1 = mSPHK1 (Mus musculus, UniProt Q8CI15); assay: Biochemical SPHK activity, 33P incorporation into S1P; parameters: species or system murine; conditions: biochemical assay
mSPHK1, sequence (Q8CI15 whole entry): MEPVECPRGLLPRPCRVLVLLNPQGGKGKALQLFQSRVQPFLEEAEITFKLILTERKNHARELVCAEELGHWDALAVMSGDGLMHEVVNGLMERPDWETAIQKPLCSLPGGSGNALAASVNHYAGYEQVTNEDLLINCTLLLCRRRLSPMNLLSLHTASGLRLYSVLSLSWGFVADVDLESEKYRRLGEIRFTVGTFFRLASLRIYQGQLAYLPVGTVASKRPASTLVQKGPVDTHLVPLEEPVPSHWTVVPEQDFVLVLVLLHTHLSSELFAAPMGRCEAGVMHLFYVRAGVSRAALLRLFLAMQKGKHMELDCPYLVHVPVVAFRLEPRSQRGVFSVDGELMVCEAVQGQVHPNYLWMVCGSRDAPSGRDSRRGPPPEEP
Method: (§8) A biochemical assay was used to measure the incorporation of ^33P-radiolabeled phosphate from ATP into S1P. Reactions were performed in 96-well polystyrene high-binding microplates (Greiner) in a volume of 60 µl. Reaction mixtures contained 50 mM HEPES (pH 7.5), 3 mM MgCl2, 10 mM NaF, 1 µM ATP, 0.75 µCi of [γ-33P]ATP, 1.11 µM sphingosine (Biomol International) in the presence of either 0.005% Triton X-100 (SPHK1) or 0.0025% NP-40 (SPHK2). Enzymatic reactions were initiated by adding 30 nM of sphingosine kinase in the presence of 2 mM dithiothreitol (DTT). Reactions were terminated after 50 min at 30°C by adding 30 µL 7.5 M Guanidine HCl. Plates were then washed three times with 200 µl PBS before 50 ul of scintillate was added to each well. The assay was quantified by counting in a Packard TopCount (Perkin Elmer).

hSPHK2 = hSPHK2 (Homo sapiens, UniProt Q9NRA0); assay: as above; conditions: biochemical assay
hSPHK2, sequence (Q9NRA0 whole entry): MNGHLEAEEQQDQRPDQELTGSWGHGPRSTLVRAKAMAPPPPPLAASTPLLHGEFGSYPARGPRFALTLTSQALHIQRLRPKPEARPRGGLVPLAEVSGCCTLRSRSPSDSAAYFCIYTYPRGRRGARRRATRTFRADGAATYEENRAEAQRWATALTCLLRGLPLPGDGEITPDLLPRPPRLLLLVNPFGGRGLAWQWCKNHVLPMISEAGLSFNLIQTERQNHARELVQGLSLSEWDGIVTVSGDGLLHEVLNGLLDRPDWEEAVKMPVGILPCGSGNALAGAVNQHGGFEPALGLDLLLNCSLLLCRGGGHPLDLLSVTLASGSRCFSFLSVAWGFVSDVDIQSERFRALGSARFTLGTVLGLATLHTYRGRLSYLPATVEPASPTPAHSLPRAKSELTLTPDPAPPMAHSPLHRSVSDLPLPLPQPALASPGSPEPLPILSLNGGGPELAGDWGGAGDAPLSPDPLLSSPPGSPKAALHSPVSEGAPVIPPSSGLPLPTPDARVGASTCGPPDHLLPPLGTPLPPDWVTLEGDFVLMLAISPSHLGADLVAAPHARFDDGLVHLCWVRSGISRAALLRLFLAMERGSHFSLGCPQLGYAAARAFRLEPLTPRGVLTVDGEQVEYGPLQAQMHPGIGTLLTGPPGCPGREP
Method: as §8

hSPHK1 = hSPHK1 (Homo sapiens, UniProt Q9NYA1); assay: as above; conditions: biochemical assay
hSPHK1, sequence (Q9NYA1 whole entry): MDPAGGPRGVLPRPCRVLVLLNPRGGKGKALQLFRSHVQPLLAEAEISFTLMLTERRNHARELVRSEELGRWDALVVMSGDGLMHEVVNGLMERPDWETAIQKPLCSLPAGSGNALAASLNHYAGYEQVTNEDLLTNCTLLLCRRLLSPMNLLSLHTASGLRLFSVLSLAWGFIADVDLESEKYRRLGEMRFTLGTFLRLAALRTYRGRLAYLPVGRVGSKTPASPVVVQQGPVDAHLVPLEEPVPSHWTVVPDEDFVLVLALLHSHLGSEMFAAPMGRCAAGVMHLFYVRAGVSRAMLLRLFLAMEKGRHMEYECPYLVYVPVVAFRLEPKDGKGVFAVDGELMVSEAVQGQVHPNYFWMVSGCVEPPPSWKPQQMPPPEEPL
Method: as §8

mSPHK2 = mSPHK2 (Mus musculus, UniProt Q9JIA7); assay: as above; parameters: species or system murine; conditions: biochemical assay
mSPHK2, sequence (Q9JIA7 whole entry): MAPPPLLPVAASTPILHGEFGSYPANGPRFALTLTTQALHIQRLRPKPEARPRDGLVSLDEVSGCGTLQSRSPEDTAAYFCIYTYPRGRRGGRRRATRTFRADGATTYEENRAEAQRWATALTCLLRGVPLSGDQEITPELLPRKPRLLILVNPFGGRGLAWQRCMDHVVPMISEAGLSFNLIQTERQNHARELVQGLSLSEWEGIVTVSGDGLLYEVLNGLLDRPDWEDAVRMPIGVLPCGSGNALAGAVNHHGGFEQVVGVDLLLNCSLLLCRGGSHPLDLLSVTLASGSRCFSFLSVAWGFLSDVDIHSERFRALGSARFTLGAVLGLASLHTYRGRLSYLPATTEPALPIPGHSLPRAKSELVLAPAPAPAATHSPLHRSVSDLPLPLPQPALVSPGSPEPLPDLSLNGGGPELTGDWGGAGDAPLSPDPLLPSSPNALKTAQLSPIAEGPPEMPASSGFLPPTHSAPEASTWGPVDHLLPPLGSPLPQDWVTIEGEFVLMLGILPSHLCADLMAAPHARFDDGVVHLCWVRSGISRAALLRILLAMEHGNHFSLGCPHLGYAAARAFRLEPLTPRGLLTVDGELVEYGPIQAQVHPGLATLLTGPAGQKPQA
Method: as §8

SPHK1 = tested on: SPHK1; parameters: method as in PMID 22397330; conditions: cited from earlier work
[6] = tested on: human melanoma cell line LOX; assay: Endogenous S1P levels 24 h after compound treatment; assay type: cell-based; conditions: 24 h treatment, read-out: IC50, endogenous S1P production (LOX)
Text: Several SPHK inhibitors have been reported in the literature, and have been utilized to support the rheostat theory.
as §3

OC[C@H]1C[C@@H](O)CCN1CCc1ccc(Nc2nc(-c3ccc(C(F)(F)F)cc3)cs2)cc1 [Compound A]
pIC50 [1]: 7.20 | effect on tumor growth in vivo ([2]; 300 mg/kg daily by oral gavage from day 18): did not lead to significant inhibition of tumor growth | mice in which compound was not tolerated (deaths) ([2]; 300 mg/kg daily by oral gavage, cause of death unknown): 3 out of the 10 | pIC50 (LOX; Homo sapiens): 5.40 | pIC50 [3]: 6.60 | reduction of host / plasma S1P levels (plasma levels of S1P; 300 mg/kg oral): more than 70% | maximum inhibition of plasma levels of S1P (plasma levels of S1P; oral gavage 10-300 mg/kg, at plasma exposure of 0.38 µM): 72% | pIC50 [4]: 7.05 | IC50s, inhibition of SPHK activity in human cell lines (human cell lines): double digit nanomolar range | oral bioavailability [5]: orally bioavailable | plasma exposure at maximum inhibition of plasma S1P [5]: 0.38 µM | effect on viability at 1 µM compound (panel of cell lines): did not result in reduced viability | viability in 72 h proliferation and 15 day colony formation assays (LN229 cells): viability was unchanged | pIC50 (HeLa): 5.19 | pIC50 (LN18): 5.39 | pIC50 (A375): 5.08 | pIC50 (HA-1): 5.20 | pIC50 (WM266-4): 5.22 | pIC50 (Colo 320): 5.29 | pIC50 (Saos2): 5.15 | pIC50 (LN229): 5.32 | pIC50 (HS294T): 5.22 | pIC50 (UACC257): 5.36 | pIC50 (mSPHK1): 7.19

OC[C@H]1C[C@H](O)CN1CCCc1ccc(Nc2nc(-c3cccc(C(F)(F)F)c3)cs2)cc1 [Compound B]
pIC50 [1]: 7.44 | pIC50 (LOX; Homo sapiens): 5.21 | IC50s, inhibition of SPHK activity in human cell lines (human cell lines): double digit nanomolar range | pIC50 (hSPHK2): 7.22 | pIC50 (hSPHK1): 8.10 | effect on viability at 1 µM compound (panel of cell lines): did not result in reduced viability | viability in 72 h proliferation and 15 day colony formation assays (LN229 cells): viability was unchanged | pIC50 (HeLa): 4.84 | pIC50 (LN18): 5.26 | pIC50 (A375): 4.76 | pIC50 (HA-1): 4.81 | pIC50 (WM266-4): 4.88 | pIC50 (Colo 320): 5.03 | pIC50 (Saos2): 4.87 | pIC50 (LN229): 5.06 | pIC50 (HS294T): 5.00 | pIC50 (UACC257): 5.19 | pIC50 (mSPHK1): 7.26 | pIC50 (mSPHK2): < 5.30

CCCCCc1ccc(/C=C/[C@H](O)[C@@H](CO)NC)cc1 [SK1-I]
biochemical IC50 (SPHK1): in the micromolar range

Oc1ccc(Nc2nc(-c3ccc(Cl)cc3)cs2)cc1 [SKII, reference compound]
pIC50 (LOX): 4.95 | pIC50 [6]: 5.12 | pIC50 (hSPHK2): 4.89 | pIC50 (mSPHK1): < 5.00 | IC50 (mSPHK1) (mSPHK1): too low to be detected | pIC50 (mSPHK2): < 5.00
